Laboratory results from article PMC8815882, “Screening the pandemic response box identified benzimidazole carbamates, Olorofim and ravuconazole as promising drug candidates for the treatment of eumycetoma” (PLoS Neglected Tropical Diseases, 2022).
Where two headings read alike, the source gives them in different places.

Test system: M. mycetomatis genome strain MM55
Test: CLSI M38-A2 based in vitro susceptibility screening (XTT or resazurin), growth at fixed concentration
Type: cell-based, Madurella mycetomatis
Details: Madurella mycetomatis; for Percent fungal survival at 100 µM: read-out: Percentage survival at 100um, 100 uM A (second replicate column)
[1] = mean of replicates, MM55, read-out: Percentage survival at 25um, 25 uM mean
[2] = replicate A, MM55, read-out: Percentage survival at 25um, 25 um A
[3] = replicate B, MM55, read-out: Percentage survival at 25um, 25 uM B
[4] = replicate C, MM55, read-out: Percentage survival at 25um, 25 uM C
[5] = mean of replicates, MM55, read-out: Percentage survival at 100um, 100 uM mean
[6] = replicate 1, MM55, read-out: Percentage survival at 100um, 100 uM A
[7] = replicate 2, MM55, read-out: Percentage survival at 100um, 100 uM A
[8] = replicate 3, MM55, read-out: Percentage survival at 100um, 100 uM A
[9] = mean of three replicates, read-out: Percentage survival at 25um, 25 uM mean
[10] = replicate A, read-out: Percentage survival at 25um, 25 um A
[11] = replicate B, read-out: Percentage survival at 25um, 25 uM B
[12] = replicate C, read-out: Percentage survival at 25um, 25 uM C
[13] = first replicate column, read-out: Percentage survival at 100um, 100 uM A
[14] = mean of three replicates, read-out: Percentage survival at 100um, 100 uM mean
[15] = second replicate column, read-out: Percentage survival at 100um, 100 uM A
[16] = third replicate column, read-out: Percentage survival at 100um, 100 uM A
[17] = mean of three, M. mycetomatis MM55, read-out: Percentage survival at 25um, 25 uM mean
[18] = replicate A, M. mycetomatis MM55, read-out: Percentage survival at 25um, 25 um A
[19] = replicate B, M. mycetomatis MM55, read-out: Percentage survival at 25um, 25 uM B
[20] = replicate C, M. mycetomatis MM55, read-out: Percentage survival at 25um, 25 uM C
[21] = mean of three, M. mycetomatis MM55, read-out: Percentage survival at 100um, 100 uM mean
[22] = replicate 1, M. mycetomatis MM55, read-out: Percentage survival at 100um, 100 uM A (first replicate column)
[23] = replicate 2, M. mycetomatis MM55
[24] = replicate 3, M. mycetomatis MM55, read-out: Percentage survival at 100um, 100 uM A (third replicate column)

## N[C@H](CCC(=O)N[C@@H](Cc1c[nH]c2ccccc12)C(=O)O)C(=O)O [MMV1581033]
[1]
  activity at 25 µM: 91%
[2]
  activity at 25 µM: 91.2%
[3]
  activity at 25 µM: 94.6%
[4]
  activity at 25 µM: 87.2%
[5]
  activity at 100 µM: 66.8%
[6]
  activity at 100 µM: 84.1%
[7]
  activity at 100 µM: 28.6%
[8]
  activity at 100 µM: 87.7%

## Cc1c(F)cccc1NC(=O)Nc1ccc(Cl)c(S(=O)(=O)[C@H]2CCCNC2)c1O [MMV1581034]
[1]
  activity at 25 µM: 83.9%
[2]
  activity at 25 µM: 82%
[3]
  activity at 25 µM: 88.9%
[4]
  activity at 25 µM: 80.7%
[5]
  activity at 100 µM: 77.6%
[6]
  activity at 100 µM: 82.8%
[7]
  activity at 100 µM: 73.6%
[8]
  activity at 100 µM: 76.3%

## NC(=O)c1ccc(I)c([N+](=O)[O-])c1 [MMV1581035]
[9]
  activity at 25 µM: 97.6%
[10]
  activity at 25 µM: 97.2%
[11]
  activity at 25 µM: 103%
[12]
  activity at 25 µM: 92.5%
[13]
  activity at 100 µM: 89.6%
[14]
  activity at 100 µM: 90.1%
[15]
  activity at 100 µM: 93.1%
[16]
  activity at 100 µM: 87.5%

## COc1ccc(C[C@@H](C)[C@@H](C)Cc2ccc(OC)c(OC)c2)cc1OC [MMV1581036]
[1]
  activity at 25 µM: 68.5%
[2]
  activity at 25 µM: 72.1%
[3]
  activity at 25 µM: 71.5%
[4]
  activity at 25 µM: 61.9%
[5]
  activity at 100 µM: 52.6%
[6]
  activity at 100 µM: 50.8%
[7]
  activity at 100 µM: 58.7%
[8]
  activity at 100 µM: 48.3%

## O=C1[C@H](CC[C@H](O)c2ccc(F)cc2)[C@@H](c2ccc(O)cc2)N1c1ccc(F)cc1 [MMV1581377]
[9]
  activity at 25 µM: 91.9%
[10]
  activity at 25 µM: 82.7%
[11]
  activity at 25 µM: 93.7%
[12]
  activity at 25 µM: 99.2%
[13]
  activity at 100 µM: -3.71%
[14]
  activity at 100 µM: 43.8%
[15]
  activity at 100 µM: 57.6%
[16]
  activity at 100 µM: 77.4%

## Nc1ccc2oc(=O)ccc2c1I [MMV1581378]
[9]
  activity at 25 µM: 80.5%
[10]
  activity at 25 µM: 75.8%
[11]
  activity at 25 µM: 85.5%
[12]
  activity at 25 µM: 80.1%
[13]
  activity at 100 µM: 75.4%
[14]
  activity at 100 µM: 64.9%
[15]
  activity at 100 µM: 66.2%
[16]
  activity at 100 µM: 53.2%

## O=c1cc(Nc2ccc3ccccc3c2)[nH]c(=O)[nH]1 [MMV1581546]
[17]
  activity at 25 µM: 84.3%
[18]
  activity at 25 µM: 93.6%
[19]
  activity at 25 µM: 85%
[20]
  activity at 25 µM: 74.5%
[21]
  activity at 100 µM: 86%
[22]
  activity at 100 µM: 78.9%
[23]
  Percent fungal survival at 100 µM: 98.5%
[24]
  activity at 100 µM: 80.4%

## CC(C)(C)OC(=O)NCc1ccc(C(=O)N[C@H]2CCOC2=O)cc1 [MMV1581547]
[17]
  activity at 25 µM: 87.5%
[18]
  activity at 25 µM: 95.2%
[19]
  activity at 25 µM: 90.1%
[20]
  activity at 25 µM: 77.3%
[21]
  activity at 100 µM: 113%
[22]
  activity at 100 µM: 94.9%
[23]
  Percent fungal survival at 100 µM: 156%
[24]
  activity at 100 µM: 89.2%

## CC(C)(C)c1cccc(-c2nc3cc(C(=N)N)ccc3[nH]2)c1O [MMV1581548]
mean, read-out: Percentage survival at 25um, 25 uM mean
  activity at 25 µM: 20.7%
[10]
  activity at 25 µM: 56.8%
[11]
  activity at 25 µM: 2.31%
[12]
  activity at 25 µM: 2.96%
mean, read-out: Percentage survival at 100um, 100 uM mean
  activity at 100 µM: 3.06%
Replicate (first column), read-out: Percentage survival at 100um, 100 uM A
  activity at 100 µM: -0.0188%
Replicate (second column), read-out: Percentage survival at 100um, 100 uM A
  activity at 100 µM: 5.51%
Replicate (third column), read-out: Percentage survival at 100um, 100 uM A
  activity at 100 µM: 3.71%

## CCc1nc(N)nc(N)c1C#CCc1ccccc1 [MMV1581549]
[9]
  activity at 25 µM: 92.3%
[10]
  activity at 25 µM: 59.8%
[11]
  activity at 25 µM: 78.6%
[12]
  activity at 25 µM: 138%
[14]
  activity at 100 µM: 2.68%
Replicate 1, read-out: Percentage survival at 100um, 100 uM A (first replicate column)
  activity at 100 µM: 1.33%
Replicate 2
  Percent fungal survival at 100 µM: 1.24%
Replicate 3, read-out: Percentage survival at 100um, 100 uM A (third replicate column)
  activity at 100 µM: 5.46%

## OC1O[C@H](CSc2ccc(F)cc2)[C@@H](O)[C@H]1O (stereo partly shown) [MMV1581550]
[17]
  activity at 25 µM: 91%
[18]
  activity at 25 µM: 97.5%
[19]
  activity at 25 µM: 90.1%
[20]
  activity at 25 µM: 85.4%
[21]
  activity at 100 µM: 85.6%
[22]
  activity at 100 µM: 80.9%
[23]
  Percent fungal survival at 100 µM: 92.1%
[24]
  activity at 100 µM: 83.9%
